# Assay results as given in US10555987B2, “GHRH agonists for the treatment of ischemic disorders” (UNIVERSITY OF MIAMI, priority 2012, dated 2020).
# Marks after values point to notes of the source that are not given here. Non-standard residues stand in square brackets, D forms with d. Residues, ends and D or L forms follow the SMILES beside them. *: point of attachment. Desaminotyrosyl = O=C(CCc1ccc(O)cc1)*; NMeY = CN[C@@H](Cc1ccc(O)cc1)C(=O)O; Nle = CCCC[C@H](N)C(=O)O; Orn = NCCC[C@H](N)C(=O)O; Abu = CC[C@H](N)C(=O)O; Aoc = NCCCCCCCC(=O)O
# Key:
# [1] = tested on: GH release; assay: In vivo endocrine activity, GH release after intravenous administration (Table 8); settings: rat, i.v. injection
# Procedure: In vivo tests on endocrine activity of new GHRH agonists (Intravenous administration). For in vivo tests based on intravenous administration, adult male Sprague-Dawley rats were anesthetized with pentobarbital (6 mg/100/g, b.w.), and GHRH agonists were injected 20 minutes after the injection of pentobarbital. Blood samples were taken from the jugular vein (pretreated level), immediately after hGHRH(1-29)NH2 injection (as a control) or after hGHRH analogs injection. Blood samples were taken from the jugular vein 5, 15 and 30 minutes after the injection. The blood samples were centrifuged, plasma was removed and the GH level was measured by ELISA.
# [2] = target: T1, GHRH receptor (Homo sapiens, UniProt Q02643); assay: GHRH receptor binding, competition with 125I-labeled JV-1-42, human pituitary membrane homogenates (Table 7); set-up: Normal human pituitaries were purchased from the National Hormone and Peptide Program; tissue National Hormone and Peptide Program (A.F. Parlow, Harbor-UCLA Medical Center, Torrance, Calif.); host or cells: normal human pituitary, membrane fraction; settings: JI-38 = 1, Table 7
# T1 sequence (Q02643 23-423): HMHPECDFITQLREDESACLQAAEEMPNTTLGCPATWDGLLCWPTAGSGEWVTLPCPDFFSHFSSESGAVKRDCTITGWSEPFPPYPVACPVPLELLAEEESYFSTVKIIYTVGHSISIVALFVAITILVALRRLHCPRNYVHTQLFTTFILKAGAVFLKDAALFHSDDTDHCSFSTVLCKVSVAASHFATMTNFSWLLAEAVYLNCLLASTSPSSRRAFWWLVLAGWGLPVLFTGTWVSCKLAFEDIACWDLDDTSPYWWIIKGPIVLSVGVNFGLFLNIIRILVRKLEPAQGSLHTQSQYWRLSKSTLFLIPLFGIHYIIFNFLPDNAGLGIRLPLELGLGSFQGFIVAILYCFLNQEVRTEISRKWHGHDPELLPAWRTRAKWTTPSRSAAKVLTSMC
# Description: Normal human pituitaries were purchased from the National Hormone and Peptide Program (A.F. Parlow, Los Angeles, County Harbor-UCLA Medical Center, Torrance, Calif.).
# [3] = tested on: GH release; assay: In vivo endocrine activity, GH release after subcutaneous administration (Table 9); settings: rat, subcutaneous (s.c.) injection
# Procedure: Subcutaneous Administration. Adult male rats were used and anesthetized with pentobarbital (6 mg/100 g, b.w.), by i.p. injection. […] Blood samples were taken from the jugular vein 5, 15 and/or 30 minutes after the injection. The blood samples were centrifuged, plasma was removed and the GH level was measured byELISA. The results are summarized in terms of potency in Table 9.
# [4] = tested on: GH release; assay: GH releasing potency in vivo, subcutaneous administration (Example 14, Table 12); set-up: species or system rat; settings: s.c.; for Serum GH level at selected time after injection (ng/ml), 0 min / Serum GH level at selected time after injection (ng/ml), 15 min / Serum GH level at selected time after injection (ng/ml), 30 min: male rats, dose 3 μg/kg, mean ± SEM
# Outline: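 Potency is expressed relative to GHRH(1-29)NH2 and JI-38 (each = 1), via equivalent GHRH(1-29)NH2 dose read from a standard curve. Peptides in 5% mannitol given i.v. or s.c. to anaesthetised male Sprague-Dawley rats (200-250 g); serum GH measured by ELISA at selected times.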
# [5] = target: T1, GHRH receptor; assay: Receptor binding in vitro, 125I-labeled [His1,Nle27]-hGHRH(1-32)NH2, membrane receptors of human anterior pituitary cells (Table 14); settings: for Relative affinity (Binding potency) compared to JI-38: JI-38 = 1; for Relative affinity (Binding potency) compared to hGHRH(1-29): hGHRH(1-29)NH2 = 1
# Description: Normal human pituitary was purchased from the National Hormone and Peptide Program (UCLA Medical Center, Torrance, Calif.).
Compound,GH releasing potency in vivo relative to JI-38 (=1) ([1]; 5 min after),GH releasing potency in vivo relative to JI-38 (=1) ([1]; 15 min after),GH releasing potency in vivo relative to JI-38 (=1) ([1]; 30 min after),Relative affinity (Binding potency) vs JI-38 [2],GH releasing potency relative to JI-38 (=1) ([3]; 15 min after),GH releasing potency relative to JI-38 (=1) ([3]; 30 min after),"Serum GH level at selected time after injection (ng/ml), 0 min [4]","Serum GH level at selected time after injection (ng/ml), 15 min [4]","Serum GH level at selected time after injection (ng/ml), 30 min [4]",GH-releasing potency after s.c. administration (in words) [4],"Relative potency compared to GHRH(1-29), 15 min [4]","Relative potency compared to JI-38, 15 min [4]","Relative potency compared to GHRH(1-29), 30 min [4]",Relative affinity (Binding potency) compared to JI-38 [5],Relative affinity (Binding potency) compared to hGHRH(1-29) [5],"Relative potency compared to JI-38, 30 min [4]"
"CCCC[C@H](NC(=O)[C@@H](NC(=O)[C@H](CC(=O)O)NC(=O)[C@H](CCC(N)=O)NC(=O)[C@H](CC(C)C)NC(=O)[C@H](CC(C)C)NC(=O)[C@H](CCCN)NC(=O)[C@H](CCCNC(=N)N)NC(=O)[C@H](C)NC(=O)[C@H](CO)NC(=O)[C@H](CC(C)C)NC(=O)[C@H](CCC(N)=O)NC(=O)[C@H](CC)NC(=O)[C@H](CC(C)C)NC(=O)[C@@H](NC(=O)[C@H](CCCN)NC(=O)[C@H](CCCNC(=N)N)NC(=O)[C@H](Cc1ccc(O)cc1)NC(=O)[C@H](CO)NC(=O)[C@H](CC(N)=O)NC(=O)[C@@H](NC(=O)[C@H](Cc1ccccc1)NC(=O)[C@@H](NC(=O)[C@H](C)NC(=O)[C@H](CC(=O)O)NC(=O)[C@@H](C)NC(=O)CCc1ccc(O)cc1)[C@@H](C)CC)[C@@H](C)O)C(C)C)[C@@H](C)CC)C(=O)N[C@@H](CC(=O)O)C(=O)N[C@@H](CCCNC(=N)N)C(=O)NCCCCCCCC(N)=O [Peptide P-21300, [Dat^1, D-Ala^2, Orn^12, Abu^15, Orn^21, Nle^27, Asp^28, Amc^30]hGHRH(1-30)NH2] (Desaminotyrosyl-[dA]DAIFTNSYR[Orn]VL[Abu]QLSAR[Orn]LLQDI[Nle]DR[Aoc]-NH2)",0.39,0.51,0.81,1.20,,,,,,,,,,,,
"[N—Me-Tyr^1, D-Ala^2, Gln^8, Orn^12, Abu^15, Orn^21, Nle^27, Asp^28, Apa^30]hGHRH(1-30)NH—CH2—CH3 [Peptide P-28475]",0.19,0.36,0.92,,,,,,,,,,,,,
"[N—Me-Tyr^1, D-Ala^2, Gln^8, Orn^12, Abu^15, Orn^21, Nle^27, Asp^28, Har^30]hGHRH(1-30)NH—CH3 [Peptide P-27450]",0.07,0.11,0.49,,,,,,,,,,,,,
"CCCC[C@H](NC(=O)[C@@H](NC(=O)[C@H](CC(=O)O)NC(=O)[C@H](CCC(N)=O)NC(=O)[C@H](CC(C)C)NC(=O)[C@H](CC(C)C)NC(=O)[C@H](CCCN)NC(=O)[C@H](CCCNC(=N)N)NC(=O)[C@H](C)NC(=O)[C@H](CO)NC(=O)[C@H](CC(C)C)NC(=O)[C@H](CCC(N)=O)NC(=O)[C@H](CC)NC(=O)[C@H](CC(C)C)NC(=O)[C@@H](NC(=O)[C@H](CCCN)NC(=O)[C@H](CCCNC(=N)N)NC(=O)[C@H](Cc1ccc(O)cc1)NC(=O)[C@H](CO)NC(=O)[C@H](CCC(N)=O)NC(=O)[C@@H](NC(=O)[C@H](Cc1ccccc1)NC(=O)[C@@H](NC(=O)[C@H](C)NC(=O)[C@H](CC(=O)O)NC(=O)[C@H](C)NC(=O)[C@H](Cc1ccc(O)cc1)NC)[C@@H](C)CC)[C@@H](C)O)C(C)C)[C@@H](C)CC)C(=O)N[C@@H](CC(=O)O)C(=O)N[C@@H](CCCNC(=N)N)C(=O)NC [Peptide P-27406, [N—Me-Tyr^1, Gln^8, Orn^12, Abu^15, Orn^21, Nle^27, Asp^28]hGHRH(1-29) NH—CH3] (H-[NMeY]ADAIFTQSYR[Orn]VL[Abu]QLSAR[Orn]LLQDI[Nle]DR-NHMe)",,,,14.5,0.47,0.50,21.3 ± 4.8 ng/mL,492.6 ± 21.8 ng/mL,282 ± 17.8 ng/mL,significantly higher potencies at 30 minutes than at 15 minutes,170,2.69*,449.7,2.95,8.22,
"CCCC[C@H](NC(=O)[C@@H](NC(=O)[C@H](CC(=O)O)NC(=O)[C@H](CCC(N)=O)NC(=O)[C@H](CC(C)C)NC(=O)[C@H](CC(C)C)NC(=O)[C@H](CCCN)NC(=O)[C@H](CCCNC(=N)N)NC(=O)[C@H](C)NC(=O)[C@H](CO)NC(=O)[C@H](CC(C)C)NC(=O)[C@H](CCC(N)=O)NC(=O)[C@H](CC)NC(=O)[C@H](CC(C)C)NC(=O)[C@@H](NC(=O)[C@H](CCCN)NC(=O)[C@H](CCCNC(=N)N)NC(=O)[C@H](Cc1ccc(O)cc1)NC(=O)[C@H](CO)NC(=O)[C@H](CCC(N)=O)NC(=O)[C@@H](NC(=O)[C@H](Cc1ccccc1)NC(=O)[C@@H](NC(=O)[C@H](C)NC(=O)[C@H](CC(=O)O)NC(=O)[C@H](C)NC(=O)[C@H](Cc1ccc(O)cc1)NC)[C@@H](C)CC)[C@@H](C)O)C(C)C)[C@@H](C)CC)C(=O)N[C@@H](CO)C(=O)N[C@@H](CCCNC(=N)N)C(=O)NC [Peptide P-27405, [N—Me-Tyr^1, Gln^8, Orn^12, Abu^15, Orn^21, Nle^27]hGHRH(1-29)NH—CH3] (H-[NMeY]ADAIFTQSYR[Orn]VL[Abu]QLSAR[Orn]LLQDI[Nle]SR-NHMe)",,,,4.03,1.60,1.13,21.8 ± 5.9 ng/mL,227.9 ± 10.5 ng/mL,143.3 ± 6.1 ng/mL,,62.3,0.99,135.2,1.09,3.04,1.21
"CCCC[C@H](NC(=O)[C@@H](NC(=O)[C@H](CC(=O)O)NC(=O)[C@H](CCC(N)=O)NC(=O)[C@H](CC(C)C)NC(=O)[C@H](CC(C)C)NC(=O)[C@H](CCCN)NC(=O)[C@H](CCCNC(=N)N)NC(=O)[C@H](C)NC(=O)[C@H](CO)NC(=O)[C@H](CC(C)C)NC(=O)[C@H](CCC(N)=O)NC(=O)[C@H](CC)NC(=O)[C@H](CC(C)C)NC(=O)[C@@H](NC(=O)[C@H](CCCN)NC(=O)[C@H](CCCNC(=N)N)NC(=O)[C@H](Cc1ccc(O)cc1)NC(=O)[C@H](CO)NC(=O)[C@H](CCC(N)=O)NC(=O)[C@@H](NC(=O)[C@H](Cc1ccccc1)NC(=O)[C@@H](NC(=O)[C@H](C)NC(=O)[C@H](CC(=O)O)NC(=O)[C@@H](C)NC(=O)CCc1ccc(O)cc1)[C@@H](C)CC)[C@@H](C)O)C(C)C)[C@@H](C)CC)C(=O)N[C@@H](CC(=O)O)C(=O)N[C@H](CCCNC(=N)N)C(=O)NC [Peptide P-27401, [Dat^1, D-Ala^2, Gln^8, Orn^12, Abu^15, Orn^21, Nle^27, Asp^28, D-Arg^29]hGHRH(1-29)NH—CH3] (Desaminotyrosyl-[dA]DAIFTQSYR[Orn]VL[Abu]QLSAR[Orn]LLQDI[Nle]D[dR]-NHMe)",,,,1.59,0.61,0.73,24.6 ± 5.3 ng/mL,217.9 ± 37.0 ng/mL,204.1 ± 23.7 ng/mL,significantly higher potencies at 30 minutes than at 15 minutes,58.8,0.93,253.4,1.05,2.94,2.27
